From PubChem BioAssay (NCI)
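Following 48 hours of exposure in 96-well plates, responses at five concentrations were used to interpolate endpoints linearly. GI50 is the concentration that inhibits growth by half. TGI is the concentration that stops growth completely.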 Where a SMILES comes first, the peptide text is derived from it. Bridges are numbered along the chain shown (N, C = ends). [ ]: non-standard residue; d: D form. aThr = C[C@H](O)[C@H](N)C(=O)O

Columns and labels:
Assay in all cases: growth of human tumour cells (NCI), 48 h
BT-549 breast = tested on: BT-549 breast
COLO 205 colon = tested on: COLO 205 colon
UACC-62 melanoma = tested on: UACC-62 melanoma
SR leukemia = tested on: SR leukemia
LOX IMVI melanoma = tested on: LOX IMVI melanoma
T-47D breast = tested on: T-47D breast
KM12 colon = tested on: KM12 colon
OVCAR-4 ovarian = tested on: OVCAR-4 ovarian

Row | Structure (SMILES) | GI50 (BT-549 breast) | TGI (BT-549 breast) | GI50 (COLO 205 colon) | TGI (COLO 205 colon) | GI50 (UACC-62 melanoma) | TGI (UACC-62 melanoma) | GI50 (SR leukemia) | TGI (SR leukemia) | GI50 (LOX IMVI melanoma) | TGI (LOX IMVI melanoma) | GI50 (T-47D breast) | TGI (T-47D breast) | GI50 (KM12 colon) | TGI (KM12 colon) | GI50 (OVCAR-4 ovarian) | TGI (OVCAR-4 ovarian)
1 | Nc1nccc(-c2c(-c3ccc(F)cc3)nn3cc(C(F)(F)F)ccc23)n1 | > 25 µM | > 25 µM | > 25 µM | > 25 µM | > 25 µM | > 25 µM | > 25 µM | > 25 µM | > 25 µM | > 25 µM | > 25 µM | > 25 µM | > 25 µM | > 25 µM | > 25 µM | > 25 µM
2 | CCSCC1CC(O)(c2ccccc2)C(c2ccccc2)C(c2ccc(F)cc2)O1 (configuration not stated) | 2.31 µM | 7.72 µM | 1.81 µM | 3.84 µM | 1.91 µM | 5.5 µM | 1.98 µM | 5.85 µM | 1.61 µM | 3 µM | 1.56 µM | 4.8 µM | 1.9 µM | 3.81 µM | 2.41 µM | 8.04 µM
3 | CN1CCN(c2c(F)cc(NC3=C(Cl)C(=O)c4ncccc4C3=O)cc2F)CC1 | 12.9 µM | 25.9 µM | 2.14 µM | 4.82 µM | 14.8 µM | 28 µM | – | – | 2.15 µM | 5.17 µM | 1.95 µM | 5.04 µM | 16.5 µM | 33 µM | 1.33 µM | 2.66 µM
4 | CC(C)[C@@H]1CC[C@]2(CO2)[C@@H]2C(=O)OCC(C(=O)O)=C[C@H]21 | 0.286 µM | 0.851 µM | 0.657 µM | > 57.7 µM | 0.221 µM | 0.578 µM | 0.552 µM | 4.24 µM | 0.331 µM | 1.42 µM | 0.381 µM | > 100 µM | 0.344 µM | 4.08 µM | 0.44 µM | > 100 µM
5 | ClCCOCCn1cnc2c(Cl)nc(Cl)nc21 | 14.7 µM | 28.2 µM | 13.2 µM | 27.5 µM | 14 µM | 27.2 µM | – | – | 5.96 µM | 20.1 µM | 14.2 µM | 36.2 µM | 15.9 µM | 29.6 µM | 17.3 µM | 35.5 µM
6 | COC12C(COC(=O)NCCO)C3=C(C(=O)C(C)=C(N)C3=O)N1CC1NC12 (configuration not stated) | – | 171 µM | – | 85.8 µM | – | 49.9 µM | – | > 264 µM | 22.2 µM | 64.7 µM | – | > 264 µM | 61.7 µM | 177 µM | 53.2 µM | 119 µM
7 | COc1ccc(C(O)c2cc3c(N)c(C(=O)Nc4cccc5ccccc45)sc3nc2C)cc1 (configuration not stated) | 0.385 µM | – | 0.457 µM | > 33.1 µM | 0.627 µM | > 53.2 µM | 0.141 µM | – | 0.444 µM | > 39.9 µM | > 100 µM | > 100 µM | 0.328 µM | – | 1.58 µM | > 100 µM
8 | Cc1ccc(S(=O)(=O)NCCCCC(N)C(=O)O)cc1 (configuration not stated) | – | > 100 µM | – | > 100 µM | – | > 100 µM | – | – | – | – | – | > 100 µM | – | > 100 µM | – | > 100 µM
9 | S=C1SCN(Cc2ccccc2)CN1Cc1ccco1 | 2.91 µM | 12.3 µM | 4.4 µM | 14.3 µM | 4.75 µM | 18.7 µM | 1.87 µM | > 100 µM | 1.88 µM | 10.2 µM | 3.41 µM | 21.9 µM | 1.52 µM | 10.6 µM | – | –
10 | COc1ccc(/C=C2\CCC/C(=C\c3ccc(OC)c(OC)c3)C2=O)cc1OC | 1.7 µM | > 32.5 µM | 1.46 µM | > 32.5 µM | 7.63 µM | > 32.5 µM | – | – | 1.15 µM | 9.02 µM | 10.2 µM | > 32.5 µM | 1.02 µM | > 32.5 µM | 3.28 µM | > 32.5 µM
11 | O=C(COc1ccc(/C=C2\Oc3ccccc3C2=O)cc1)Nc1nc2ccccc2s1 | 6.67 µM | > 80.5 µM | 32 µM | > 89.8 µM | 42 µM | > 100 µM | 2.38 µM | 8.57 µM | – | – | 41.4 µM | > 100 µM | 2.09 µM | > 100 µM | 21.2 µM | > 100 µM
12 | C=C(CN1CCc2[nH]c3ccc(F)cc3c2C1)c1ccc(C(=O)Nc2ccccc2N)cc1 | 1.5 µM | 5.67 µM | 2.37 µM | 6.66 µM | 2.26 µM | 5.9 µM | 0.795 µM | 20.1 µM | – | – | 3.76 µM | 87.8 µM | 0.524 µM | 2.94 µM | – | –
13 | COc1ccccc1Oc1nccc(-c2c(-c3ccc(F)cc3)ncn2C2CCNCC2)n1 | > 23.6 µM | > 25 µM | 7.37 µM | > 19.9 µM | > 25 µM | > 25 µM | – | – | 17.6 µM | > 25 µM | > 25 µM | > 25 µM | > 25 µM | > 25 µM | > 25 µM | > 25 µM
14 | O=C(O)CN(CCN(CC(=O)O)CC(=O)O)CC(=O)O.[Mn+2] | > 100 µM | > 100 µM | > 100 µM | > 100 µM | > 100 µM | > 100 µM | – | – | > 100 µM | > 100 µM | > 100 µM | > 100 µM | > 100 µM | > 100 µM | > 100 µM | > 100 µM
15 | COc1cc(/C=C/c2cc(/C=C/c3ccc(O)c(OC)c3)n(C(=O)c3ccccc3Br)n2)ccc1O | 2.12 µM | 7.75 µM | 2.31 µM | 4.63 µM | 2.64 µM | 8.77 µM | – | – | – | – | 2.93 µM | 13.2 µM | 2.22 µM | > 100 µM | 3.64 µM | 22.8 µM
16 | COc1ccc(-c2nc3ccc(Cc4ccc5nc(-c6ccc(OC)cc6)[nH]c5c4)cc3[nH]2)cc1 | 0.231 µM | 2.54 µM | < 0.01 µM | 0.184 µM | 0.0471 µM | 2.19 µM | – | – | 0.0543 µM | 0.217 µM | – | – | < 0.01 µM | 0.163 µM | 0.189 µM | 2.14 µM
17 | COc1cc(OC)c(OC)cc1/C=C/c1nc2ccccc2s1 | – | – | – | > 100 µM | – | – | – | – | – | > 100 µM | – | > 100 µM | – | > 100 µM | – | –
18 | CCCCCC/C=C\CCCCCCCCC(=O)c1cccc(OC)c1OC | – | > 100 µM | – | > 100 µM | – | > 100 µM | – | > 100 µM | – | 32.9 µM | – | > 100 µM | – | > 100 µM | – | –
19 | CNCc1ccc(-c2cc(-c3nc(-c4ccc(S(=O)(=O)C(C)C)cc4)cnc3N)on2)cc1 | 2.04 µM | 30.4 µM | 10.8 µM | 24.1 µM | 4.77 µM | 26.6 µM | 0.132 µM | 2.84 µM | – | – | 15.7 µM | 37.8 µM | 1.87 µM | 12.6 µM | 5.05 µM | 22.8 µM
20 | CCCCS(=O)c1sc2nc(-c3cccs3)cc(-c3ccccc3)c2c1N (configuration not stated) | 9.24 µM | 67.9 µM | 16.9 µM | 56.6 µM | – | – | 6.46 µM | > 68 µM | 13 µM | > 100 µM | 5.77 µM | 46.7 µM | 17.8 µM | > 100 µM | 13.5 µM | > 100 µM
21 | Cc1ccc(NC(=O)c2cc(S(=O)(=O)Nc3nnc(-c4ccccc4)c(-c4ccccc4)n3)c(SCc3ccccc3)cc2Cl)cc1 | 19.8 µM | 45.9 µM | 25 µM | 55.6 µM | 16.3 µM | 31.2 µM | 36 µM | > 100 µM | 13.3 µM | 28.6 µM | – | – | 21.5 µM | 50.7 µM | 25.7 µM | 92.2 µM
22 | CC(C)C[C@@H]1NC(=O)[C@@H]2CCCN2C(=O)[C@@H]2CCCN2C(=O)[C@H](CC(C)C)NC(=O)[C@H](CO)NC(=O)[C@H](CCCCN)NC(=O)[C@H]([C@H](C)O)NC(=O)[C@@H]2CSSC[C@@H](NC1=O)C(=O)N[C@@H](Cc1ccccc1)C(=O)N1CCC[C@H]1C(=O)N[C@@H](CC(=O)O)C(=O)NCC(=O)N[C@@H](CCCN=C(N)N)C(=O)N2 (cyclo(C[aThr]KSLPPL[dC]FPDGR); disulfide 1-9) | > 50 µM | > 50 µM | > 50 µM | > 50 µM | > 50 µM | > 50 µM | – | – | > 50 µM | > 50 µM | > 50 µM | > 50 µM | > 50 µM | > 50 µM | > 50 µM | > 50 µM
23 | CC(=O)Oc1c(C(=O)[O-])cc(C(C)C)cc1C(C)C.CC(=O)Oc1c(C(=O)[O-])cc(C(C)C)cc1C(C)C.CC(=O)Oc1c(C(=O)[O-])cc(C(C)C)cc1C(C)C.CC(=O)Oc1c(C(=O)[O-])cc(C(C)C)cc1C(C)C.[Cu+2].[Cu+2] | 16.7 µM | 38.5 µM | 21 µM | 42.5 µM | 18.6 µM | 39.9 µM | – | – | 2.74 µM | 25.8 µM | 52 µM | > 100 µM | 19.1 µM | > 100 µM | 42.9 µM | 97.1 µM
24 | CCc1ccc(Nc2cc(C)c3ccc(O)cc3n2)cc1 | 4.48 µM | 16.3 µM | 10.4 µM | 24.3 µM | 8.57 µM | 22.1 µM | – | – | 5.03 µM | 18.5 µM | 4.83 µM | 23.3 µM | 6.01 µM | 21.2 µM | 12.4 µM | 30.9 µM
